Source: US6376504B1 (Parker Hughes Institute, priority 1998, dated 2002)
“Also recorded” adds a separate entry of the source. Like-named read-outs stand apart in the source and are kept apart here.

Assays:
[1] = tested on: HTLVIIIB strain of HIV-1; assay: p24 antigen production in HIV-1 (HTLVIIIB) infected PBMCs; conditions: Human immunodeficiency virus 1, PBMC
Method: The HTLVIIIB strain of HIV-1 was propagated in CCRF-CEM cells and the virus stocks obtained from cell-free supernatants of infected cells were titered using MT-2 cells. Cell-free supernatants were harvested and frozen in 1 ml aliquots at −70° C. Titration of the stock virus was performed using MT-2 cells and the cytopathic effect of the virus used in this study was typical of HIV-1 on MT-2 cells.
Cells were cultured for 7 days in 96-well microtiter plates (100 μl/well; 2×10^6 cells/ml, triplicate wells) in the presence and absence of various concentrations (0.001 μM to 100 μM) of the anti-HIV agents. Cells from non-infected controls were handled in the same way except the virus was omitted from the preparation. Aliquots of culture supernatants were removed from the wells on the 7th day after infection for RT assays and p24 antigen, as previously described in the following references: Erice et al., ANTIMICROB AG CHEMOTHER, 37:835-838 (1993); Uckun et al., ANTIMICROB AGENTS CHEMOTHER, 42:383-388 (1998); and Zarling et al., Nature 347:92-95 (1990).
The p24 enzyme immunoassay was the unmodified kinetic assay available commercially (Coulter Corporation/Immunotech, Inc., Westbrook, Me.). The assay uses a murine monoclonal antibody to the HIV core protein coated onto microwell strips to which the antigen present in the test culture supernatant sample binds. […] The plates were read on a ELISA reader (Molecular Devices, Sunnyvale, Calif.) at 650 nm and p24 levels, expressed as ng/ml, were calculated against known standards supplied by Coulter/Immunotech, Inc. Percent viral inhibition was calculated by comparing the p24 values for the test substance-treated infected cells with the p24 values for untreated infected cells (i.e., virus controls).
Percent inhibition of virus replication was calculated by comparing the p24 antigen values or RT activity from the test drug-treated infected cells with p24 antigen values or RT activity from untreated infected cells. The anti-HIV activity of compounds was expressed as the IC50 values, calculated from the dose-response curves, and defined as the drug concentration that decreases the HIV-1 RT activity or p24 antigen production in HIV-1 infected PBMCs, by 50%.

[2] = tested on: normal human ectocervical epithelial cells (CrEC 4627); assay: MTT cell proliferation assay, ectocervical epithelial cells; assay type: cell-based; conditions: for IC50: Homo sapiens, Epithelial cell, read-out: IC50 ectocervical epithelial cells; for SI (Selectivity Index) ectocervical epithelial cells: ratio of IC50 to EC50 (sperm)
Method: (§1) Normal human ectocervical (CrEC 4627) and endocervical epithelial cells (CrEC-En 4312) were obtained from Clonetics, (San Diego, Calif.) and propagated in T-150 cm^2 tissue culture flasks (Corning Corp., Corning, N.Y.) in small airway epithelial cell basal medium (Clonetics) supplemented with 50 μg/ml BPE, 0.5 μg/ml hydrocortisone, 0.5 μg/ml hEGF, 0.1 μg/ml retinoic acid, […] trasferrin, 5 μg/ml insulin, 5 μg/ml epinephrine, and 0.5 mg/ml BSA-FAF.
(§2) Briefly, cells were harvested with 0.125% (w/v) trypsin-0.02% EDTA (GIBCO) from exponential-phase maintenance cultures and centrifuged (300 g×5 minutes). After suspension and counting, cells were dispensed within triplicate 96-well tissue culture plates in 100 μl volumes. […] NNIs were reconstituted in DMSO to a concentration of 100 mM. […] Control wells with medium containing 0.25% of DMSO alone were included as controls. Culture plates were then incubated for 24 hour before adding 10 μl of MTT solution (5 mg/ml in PBS) to each well. Wells containing only medium and MTT were used as control for each plate. The tetrazolium/formazan reaction was allowed to proceed for 4 hours at 37° C., and then 100 μl of the solubilization buffer (10% sodium dodecyl sulfate in 0.1% HCl) was added to all wells and mixed thoroughly to dissolve the dark blue formazan crystals.
(§3) After an overnight incubation at 37° C., the optical densities (OD) at 540 nm were measured using a 96-well multiscanner autoreader with the solubilization buffer serving as blank, To translate the OD540 values into the number of live cells in each well, the OD540 values were compared to those on standard OD540-versus-cell number curves generated for each cell line. The percent survival was calculated using the formula: % survival=Live cell number [test]/Live cell number [control]×100. All assays were run in triplicate and the results were expressed as IC50 values. The IC50 was defined as the concentration required for 50% reduction in cell survival.

[3] = tested on: normal human endocervical epithelial cells (CrEC-En 4312); assay: MTT cell proliferation assay, endocervical epithelial cells; assay type: cell-based; conditions: for IC50: Homo sapiens, Epithelial cell, read-out: IC50 endocervical epithelial cells; for SI (Selectivity Index) endocervical epithelial cells: ratio of IC50 to EC50 (sperm)
Method: as §1, §2, §3

[4] = tested on: human sperm acrosomal membrane; assay: Sperm acrosomal membrane integrity, confocal laser scanning microscopy (FITC-Pisum sativum lectin); assay type: cell-based; conditions: for acrosome status in confocal images: 500 μM, 6 hours
Method: The percentages of sperm with an intact acrosome following a 6 hour treatment with and without increasing concentrations (31.2 μM to 500 μM) o f th e three NNIs (S-DABO, F-PBT and D-PBT in comparison to N-9 were evaluated by CLSM. Ethanol permeabilized and airdried sperm smears were stained sequentially with the three fluorescent markers, FITC-Pisum sativum lectin, TOTO-3 iodide, and Nile red (Molecular Probes, Eugene, Oreg.) because their targets are different (acrosome, nucleus, and membrane lipid respectively). Samples were examined under a BioRad MRC-1024 Laser Scanning Confocal Microscope (BioRad Laboratories, Hercules, Calif.) equipped with a krypton/argon mixed gas laser (excitation lines 488, 568, and 647 nm) and mounted on a Nikon Eclipse E800 series upright microscope. The fluorescence emission of fluorescein, TOTO-3 iodide, and Nile red from the acrosomal region, nucleus, and the plasma membrane of sperm after ethanol permteabilization were si multan eously detected using the […], and 680 DF32 emission/filter, respectively. Confocal images were obtained using a Nikon 100×(NA 1.35) objective lens and Kalman collection filter. Digitized images were saved on a Jaz disk (Iomega Corporation, Roy, UT) and process ed using Lasersharp Bio-Rad) with the Adobe Photoshop software (Adobe Systems, Mountain View, Calif.). Final images were printed on a Fuji Pictrography 3000 (Fuji Photo Film Co., Tokyo, Japan) color printer.

[5] = tested on: human sperm; assay: Sperm immobilizing activity, concentration-dependent, CASA; assay type: cell-based; conditions: for EC50: Homo sapiens, Sperm, read-out: Spermicidal activity EC50 (sperm motility); for effect on sperm motility: concentrations as high as 500 μM
Method: All donor sperm specimens were obtained after informed consent and in compliance with the guidelines of the Hughes Institute Institutional Review Board. Motile sperm (≧10×10^6/ml), were suspended in 1 ml of Biggers, whitten, and Whittingam's medium (BWW) containing 25 mM HEPES (Irvine Scientific, Santa Ana, Calif.), and 0.3% BSA in the presence and absence of serial two-fold dilutions of test substance (500 μM to 31.2 μM) in 1% DMSO. The stock solutions of NNIs were prepared in DMSO (100 mM) and diluted in assay medium to yield the desired concentrations. Corresponding volume of DMSO (1%) was added to control tubes. N-9 was diluted in BWW-0.3% BSA (pH 7.4) to yield the desired concentrations (31.2 μM to 500 μM). After 3 hours of incubation at 37° C., the percentage of motile sperm was evaluated by CASA by procedures as described in D'Cruz et al., BIOL REPROD, 58:1515-1526, (1998); and D'Cruz et al., MOL HUM REPROD, 4:683-693 (1998). The percent motilities were compared with sham-treated control suspensions of motile sperm. The spermicidal activity of test compounds was expressed as the EC50 (the final concentration of the compound in medium that decreases the proportion of motile sperm by 50%).
(§4) For CASA, 4 μl of each sperm suspension were loaded into two 20-μm Microcell chambers in a counting chamber at 37° C. At least 5-8 fields per chamber were scanned for analysis using a Hamilton Thome Integrated Visual Optical System (IVOS), version 10 instrument (Hamilton Thorne Research Inc., Danvers, Mass.). Each field was recorded for 30 seconds. The computer calibrations were set at 30 frames at a frame rate of 30/second. Other settings were as follows: minimum contrast 8; minimum size 6; low-size gate, 1.0; high-size gate, 2.9; low-intensity gate, 0.6; high-intensity gate, 1.4; phase-contrast illumination; low path velocity at 10 μm/s, and threshold straightness at 80%; and magnification factor, 1.95.
(§5) The sperm kinematics parameters that were determined included numbers of motile (MOT) and progressively (PRG) motile sperm; curvilinear velocity (VCL; a measure of the total distance traveled by a given sperm during the acquisition divided by the time elapsed); average path velocity (VAP; the spatially averaged path that eliminates the wobble of the sperm head), straight line velocity (VSL; the straight-line distance from beginning to end of track divided by time taken), beat cross frequency (BCF; frequency of sperm head crossing sperm average path), the amplitude of lateral head displacement (ALH; the mean width of sperm head oscillation), and the derivatives, straightness (STR=VSL/VAP×100) and linearity (LIN=VSL/VCL×100; departure of sperm track from a straight line). Data from each individual cell track were recorded and analyzed. At least 200 motile sperm were a nalyzed for each aliquot sampled.

[6] = biological target: purified recombinant HIV RT (Human immunodeficiency virus type 1 group M subtype B, UniProt P04585); assay: RT inhibitory activity against purified recombinant HIV RT (cell-free Quan-T-RT scintillation proximity assay)
Method: In the assay, a DNA/RNA primer/template is bound to SPA beads via a biotin/streptavidin linkage. The primer DNA is a 16-mer oligo(T) which has been annealed to a poly(rA) template. The primer/template is bound to a streptavidin-coated SPA bead. ^3H-TTP is incorporated into the primer by reverse transcription. In brief, ^3H-TTP, at a final concentration of 0.5 Ci/sample was diluted in RT assay buffer (49.5 mM Tris-HCl, pH 8.0, 80 mM KCl, 10 mM MgCl2, 10 mM DTT, 2.5 mM EGTA, 0.05% Nonidet-P-40), and added to annealed DNA/RNA bound to SPA beads. The compound being tested was added to the reaction mixture at 0.001 μM-100 μM concentrations. […] The reaction was stopped by addition of 0.2 ml of 120 mM EDTA. The samples were counted in an open window using a Beckman LS 7600 instrument (Beckman Instruments, Fullerton, Calif.).

[7] = tested on: human sperm; assay: Time-dependent sperm immobilization and sperm kinematic parameters, CASA; assay type: cell-based; conditions: 1 mM
Method: To test the effect of duration of incubation on SIA of spermicidal NNIs, motile fractions of sperm (10^7/ml) were incubated at 37° C. in BWW-0.3% BSA in the presence of 1 mM F-PBT, S-DABO in 1% DMSO or 1% DMSO alone as vehicle control. At timed intervals of 5 or 10 minutes, duplicate aliquots (4-μl) were transferred to two 20 μm Microcell chambers (Conception Technologies) and sperm motility was assessed by CASA for a duration of 60 minutes.
as §4, §5

[8] = 168 h, read-out: IC50 p24 (HTLVIIIB)
[9] = in Homo sapiens, read-out: IC50[p24], HIV replication in PBMCs
[10] = 3 hours incubation at 37° C., CASA

| SMILES | IC50 [1, 8] [µM] | IC50 ([2]; 24 h) [µM] | SI (Selectivity Index) ectocervical epithelial cells [2] | IC50 ([3]; 24 h) [µM] | SI (Selectivity Index) endocervical epithelial cells [3] | acrosome status in confocal images [4] | EC50 ([5]; 3 h) [µM] | IC50 [1, 9] [µM] | IC50 [6] [µM] | effect on sperm motion parameters (PRG, VCL, VAP, VSL, STR, LIN, BCF, ALH) ([5]; CASA) | EC50 [5, 10] [µM] | effect on sperm motility [5] | spermicidal activity (in words) [5] | further results |
| --- | --- | --- | --- | --- | --- | --- | --- | --- | --- | --- | --- | --- | --- | --- |
| CCCCCCCCCc1ccc(OCCOCCOCCOCCOCCOCCOCCOCCOCCO)cc1 [Compound N-9, nonoxynol-9, reference compound] | 2.2 | 15 | 0.18 | 11 | 0.13 | no green fluorescence; also recorded: only acrosome-reacted sperm | 81 | – | – | – | – | – | – | acrosomal staining (FIG. 5A) ([4]; after 6 hours of incubation): complete loss of acrosomal staining |
| COc1ccc(OC)c(CCNC(=S)Nc2ccc(Br)cn2)c1 [D-PBT, N-[2-(2,5-dimethoxyphenethyl)]-N′-[2-(5-bromopyridyl)]-thiourea] | < 0.001 | – | – | – | – | – | – | < 0.001 | 0.1 | did not alter the sperm motion parameters | > 500 | did not affect sperm motility | – | – |
| Fc1ccccc1CCNC(=S)Nc1ccc(Br)cn1 [F-PBT, N-[2-(2-fluorophenethyl)]-N′-[2-(5-bromopyridyl)]-thiourea] | < 0.001 | > 1000 | >6.8 | > 1000 | >6.8 | acrosomes remained intact; also recorded: None of the FIGS. 5B, 5C, or 5D show increased acrosome reaction | 147 | < 0.001 | 0.4 | – | – | – | concentration- and time-dependent spermicidal activity | time required for 50% motility loss of progressively motile sperm ([7]; 37° C.): 10 min; beat cross frequency (BCF) and amplitude of lateral head displacement (ALH) ([7]; time-dependent, 60 minutes): relatively stable; linearity (LIN) and straightness (STR) ([7]; time-dependent, 60 minutes): remained relatively constant; movement characteristics of surviving sperm (VCL, VAP, VSL) ([7]; time-dependent, 60 minutes): significant changes; IC50 [2]: > 1000 µM; IC50 [3]: > 1000 µM |
| CSCSc1nc(Cc2ccccc2)c(C(C)C)c(=O)[nH]1 [S-DABO, 5-isopropyl-2-[(methylthiomethyl)thio]-6-(benzyl)-pyrimidin-4-(1H)-one] | < 0.001 | – | >19.8 | – | >19.8 | acrosomes remained intact; also recorded: None of the FIGS. 5B, 5C, or 5D show increased acrosome reaction | – | < 0.001 | 6.1 | – | 202 | – | concentration- and time-dependent spermicidal activity | IC50 ([2]; 24 hours treatment, MTT): > 4000 µM; IC50 ([2]; MTT dose survival curves): > 4000 µM; IC50 ([3]; 24 hours treatment, MTT): > 4000 µM; IC50 ([3]; MTT dose survival curves): > 4000 µM |
| S=C(NCCc1ccccn1)Nc1ccc(Br)cn1 [Trovirdine, reference compound] | 0.007 | – | – | – | – | – | > 500 | – | – | did not alter the sperm motion parameters | – | did not affect sperm motility | – | – |
